Test results: patent US9487516B2, “Antibacterial oxadiazolone derivatives” (priority 2013, dated 2016)
Values after ≈ are worked out from the molar mass of the structure shown.

Assays:
Test in all cases: Bacterial growth minimal inhibitory concentration (microdilution, cation-adjusted Mueller-Hinton Broth)
Type in all cases: cell-based
[1] = test system: Moraxella catarrhalis A894; settings: quinolone-sensitive strain
Protocol: (§1) Minimal Inhibitory Concentrations (MICs; mg/L) were determined in cation-adjusted MuellerHinton Broth by a microdilution method following the description given in “Methods for Dilution Antimicrobial Susceptibility Tests for Bacteria that Grow Aerobically”, Approved standard, 7th ed., Clinical and Laboratory Standards Institute (CLSI) Document M7-A7, Wayne, Pa., USA, 2006.
(§2) All Example compounds were tested against several Gram positive and Gram negative bacteria. […] Staphylococcus aureus A798, Enterococcus faecium A949 and Acinetobacter baumanii T6474 are multiply-resistant strains (in particular quinolone-resistant), while Moraxella catarrhalis A894 is a quinolone-sensitive strain and Staphylococcus aureus ATCC29213 is a methicillin-sensitive and quinolone-sensitive strain.

[2] = test system: Enterococcus faecium A949; settings: multiply-resistant strain (in particular quinolone-resistant), read-out: MIC for E. faecium A949
Protocol: as §1, §2

[3] = test system: Acinetobacter baumanii T6474; settings: Acinetobacter baumannii, multiply-resistant strain (in particular quinolone-resistant)
Protocol: as §1, §2

[4] = test system: Staphylococcus aureus ATCC29213; settings: methicillin-sensitive and quinolone-sensitive strain, read-out: MIC for S. aureus ATCC29213
Protocol: as §1, §2

[5] = test system: Staphylococcus aureus A798; settings: multiply-resistant strain (in particular quinolone-resistant), read-out: MIC for S. aureus A798
Protocol: as §1, §2

MIC [1]	MIC [2]	MIC [3]	MIC [4]	MIC [5]	SMILES
0.5 µg/mL (≈ 1.05 µM)	2 µg/mL (≈ 4.22 µM)	2 µg/mL (≈ 4.22 µM)	1 µg/mL (≈ 2.11 µM)	2 µg/mL (≈ 4.22 µM)	Cc1ccc2ccc(=O)n3c2c1[C@H](NCCCc1nn(-c2ccc4c(n2)NC(=O)CO4)c(=O)o1)C3 [Example 40, (S)-9-methyl-1-{3-[5-oxo-4-(3-oxo-3,4-dihydro-2H-pyrido[3,2-b][1,4]oxazin-6-yl)-4,5-dihydro-[1,3,4]oxadiazol-2-yl]-propylamino}-1,2-dihydro-pyrrolo[3,2,1-ij]quinolin-4-one]
0.063 µg/mL (≈ 0.13 µM)	0.5 µg/mL (≈ 1.03 µM)	0.125 µg/mL (≈ 0.257 µM)	0.063 µg/mL (≈ 0.13 µM)	0.125 µg/mL (≈ 0.257 µM)	N#Cc1ccc2ccc(=O)n3c2c1[C@H](NCCCc1nn(-c2ccc4c(n2)NC(=O)CO4)c(=O)o1)C3 [Example 41, (S)-4-oxo-1-{3-[5-oxo-4-(3-oxo-3,4-dihydro-2H-pyrido[3,2-b][1,4]oxazin-6-yl)-4,5-dihydro-[1,3,4]oxadiazol-2-yl]-propylamino}-1,2-dihydro-4H-pyrrolo[3,2,1-ij]quinoline-9-carbonitrile]
